Values quoted from earlier work, collected in US20240415910A1, “Toxicity-Removed and Medicinal Effect-Retained Fuzi Decoction Granule and Preparation Method Thereof” (Zhejiang Chinese Medical University, priority 2023, published 2024).

Assays:
[1] = oral administration
[2] = water and ethanol

In the case of `CCN1C[C@]2(COC)[C@H](O)C[C@H](OC)[C@@]34[C@@H]5C[C@@]6(O)[C@H](OC(=O)c7ccccc7)[C@@H]5[C@@](OC(C)=O)([C@@H]([C@H](OC)[C@H]23)[C@@H]14)[C@@H](O)[C@@H]6OC` [Aconitine], the “oral amount that can cause poisoning reactions” value [1] is listed as 0.2 mg and the solubility [2] is listed as “soluble in both water and ethanol”.
